From ChEMBL document CHEMBL1201862, “PubChem BioAssay data set” (2004)
Where a name gives a salt, the structure may show the parent alone. Active and inactive are the calls of the source.

Tests used:
[1] = target: Caspase-6 (Homo sapiens, UniProt P55212); test: inhibition of CASP6 peptide cleavage – biochemical, VEID-R110 fluorescence, cherry-pick, dose response (AID 720632)
[2] = cells
[3] = target: Genome polyprotein (dengue virus type 2, UniProt P29990); test: flavivirus cap methylation enzyme inhibition – biochemical, confirmation dose response, primary screen (AID 588689); type: functional
Chain of Genome polyprotein (P29990 2492-3391 limits assumed): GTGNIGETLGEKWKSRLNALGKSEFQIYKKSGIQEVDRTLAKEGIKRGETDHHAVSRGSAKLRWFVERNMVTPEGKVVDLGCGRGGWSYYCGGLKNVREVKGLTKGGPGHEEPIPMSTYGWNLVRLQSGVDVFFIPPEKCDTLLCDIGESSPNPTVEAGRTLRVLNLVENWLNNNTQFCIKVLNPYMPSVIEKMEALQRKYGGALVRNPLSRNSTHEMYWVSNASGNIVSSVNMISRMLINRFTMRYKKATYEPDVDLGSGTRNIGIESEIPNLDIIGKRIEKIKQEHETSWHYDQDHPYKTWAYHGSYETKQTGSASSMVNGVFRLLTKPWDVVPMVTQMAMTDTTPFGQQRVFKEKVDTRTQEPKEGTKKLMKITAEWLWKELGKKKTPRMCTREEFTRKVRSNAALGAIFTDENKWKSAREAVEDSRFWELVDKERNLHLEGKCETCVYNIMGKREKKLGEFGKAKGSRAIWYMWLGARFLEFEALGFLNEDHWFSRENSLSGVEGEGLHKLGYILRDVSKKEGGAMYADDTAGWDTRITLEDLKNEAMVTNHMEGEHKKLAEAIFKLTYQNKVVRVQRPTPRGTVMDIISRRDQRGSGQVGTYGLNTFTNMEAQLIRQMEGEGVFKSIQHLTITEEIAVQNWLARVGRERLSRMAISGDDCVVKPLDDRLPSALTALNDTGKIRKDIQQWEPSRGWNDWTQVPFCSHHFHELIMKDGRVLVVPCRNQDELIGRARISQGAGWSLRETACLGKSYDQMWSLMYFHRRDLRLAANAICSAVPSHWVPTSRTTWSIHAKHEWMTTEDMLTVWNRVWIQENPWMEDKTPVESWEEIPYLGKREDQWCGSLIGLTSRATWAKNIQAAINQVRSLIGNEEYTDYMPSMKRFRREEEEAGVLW

[4] = viability of uninfected HEp-2 cells – cell-based, HTS, cytotoxicity control for RSV inhibitor project, dose response (AID 2410); type: functional; conditions: human respiratory syncytial virus
[5] = target: E3 ubiquitin-protein ligase Mdm2 (Homo sapiens, UniProt Q00987); test: MDM2-luc reporter signal enhancers, multi-concentration potency testing, MDM2 ubiquitin-protein ligase inhibitor program, whole-cell format, luminescence detection, 384-well microplate (AID 1394); type: functional;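 further: MDM2 E3 inhibitors raise luminescence so EC50 is for signal enhancement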
Chain of E3 ubiquitin-protein ligase Mdm2 (Q00987 whole entry): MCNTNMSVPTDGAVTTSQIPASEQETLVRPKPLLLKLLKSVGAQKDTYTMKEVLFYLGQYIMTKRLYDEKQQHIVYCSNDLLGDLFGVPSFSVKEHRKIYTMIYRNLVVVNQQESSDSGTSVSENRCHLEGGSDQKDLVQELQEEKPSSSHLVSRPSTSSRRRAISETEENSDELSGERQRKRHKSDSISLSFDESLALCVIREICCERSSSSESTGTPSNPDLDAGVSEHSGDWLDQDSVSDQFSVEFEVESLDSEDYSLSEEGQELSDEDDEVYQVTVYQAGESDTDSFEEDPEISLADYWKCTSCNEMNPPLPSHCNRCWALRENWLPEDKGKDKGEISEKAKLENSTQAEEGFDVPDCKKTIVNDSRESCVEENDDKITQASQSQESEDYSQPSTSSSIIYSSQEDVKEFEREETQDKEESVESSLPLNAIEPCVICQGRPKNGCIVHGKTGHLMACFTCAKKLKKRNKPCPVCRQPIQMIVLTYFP

[6] = HIV-1 Vif–A3G interaction blockers – biochemical, TR-FRET, GST-Vif 1-94, biotin-A3G peptide, dose response retest, primary screen (AID 1117319); type: functional;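 further: TR-FRET signal of purified GST-Vif binding a biotinylated A3G peptide; inhibitors lower the FRET signal by blocking Vif and A3G binding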
[7] = system: H4; test: Luminescence Cell-Based Dose Response HTS to Identify Activators of 5'UTR Stem-Loop Driven Prion Protein mRNA Translation in H4 Neuroglioblastoma Cells. [Related pubchem assays: 1829 (Project Summary), 1814 (Primary HTS)]; type: functional; conditions: Homo sapiens
[8] = Luminescence Cell-Based Dose Response HTS to Identify Activators of Luciferase Translation or Activity in H4 […] Cells. [Related pubchem assays: 1829 (Project Summary), 1814 (Primary HTS)]; type: functional
[9] = Luminescence Cell-Based Dose Response to Identify Activators of Luciferase Translation or Activity in H4-C Neuroglioblastoma Cells. [Related pubchem assays: 1829 (Project Summary), 1814 (Primary HTS)]; type: functional
[10] = Luminescence Cell-Based Dose Response to Identify Activators of 5'UTR Stem-Loop Driven Prion Protein mRNA Translation in H4-C Neuroglioblastoma Cells. [Related pubchem assays: 1829 (Project Summary), 1814 (Primary HTS)]; type: functional
[11] = Luminescence Cell-Based Dose Confirmation to Identify Activators of 5'UTR Stem-Loop Driven Alpha-Synuclein mRNA Translation in H4 Neuroglioblastoma Cells. [Related pubchem assays: 1829 (Project Summary), 1814 (Primary HTS)]; type: functional
[12] = Luminescence Cell-Based Dose Confirmation HTS to Identify Activators of 5'UTR Stem-Loop Driven Alpha-Synuclein mRNA Translation in H4 Neuroglioblastoma Cells. [Related pubchem assays: 1829 (Project Summary), 1814 (Primary HTS)]; type: functional
[13] = target: Mitogen-activated protein kinase 10 (Homo sapiens, UniProt P53779); test: Dose response biochemical screening assay for inhibitors of c-Jun N-Terminal Kinase 3 (JNK3). [Related pubchem assays: 746 ]
Chain of Mitogen-activated protein kinase 10 (P53779 whole entry): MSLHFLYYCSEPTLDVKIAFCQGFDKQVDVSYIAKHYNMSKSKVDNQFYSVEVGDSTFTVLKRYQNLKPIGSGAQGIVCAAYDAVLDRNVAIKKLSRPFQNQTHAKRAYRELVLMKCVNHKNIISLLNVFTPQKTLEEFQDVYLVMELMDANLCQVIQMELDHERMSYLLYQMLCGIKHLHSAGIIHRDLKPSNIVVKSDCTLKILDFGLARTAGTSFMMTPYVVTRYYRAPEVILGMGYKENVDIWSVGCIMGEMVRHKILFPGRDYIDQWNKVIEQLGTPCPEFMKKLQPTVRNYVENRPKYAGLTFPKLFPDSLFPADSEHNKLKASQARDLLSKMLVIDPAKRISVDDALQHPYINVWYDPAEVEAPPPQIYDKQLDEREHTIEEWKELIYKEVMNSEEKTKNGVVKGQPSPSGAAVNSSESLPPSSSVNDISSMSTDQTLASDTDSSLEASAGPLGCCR

[14] = target: Protein-tyrosine kinase 2-beta (Homo sapiens, UniProt Q14289);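 further: potency of inhibitors of PYK2 kinase phosphorylation of poly-GT substrate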
Chain of Protein-tyrosine kinase 2-beta (Q14289 whole entry): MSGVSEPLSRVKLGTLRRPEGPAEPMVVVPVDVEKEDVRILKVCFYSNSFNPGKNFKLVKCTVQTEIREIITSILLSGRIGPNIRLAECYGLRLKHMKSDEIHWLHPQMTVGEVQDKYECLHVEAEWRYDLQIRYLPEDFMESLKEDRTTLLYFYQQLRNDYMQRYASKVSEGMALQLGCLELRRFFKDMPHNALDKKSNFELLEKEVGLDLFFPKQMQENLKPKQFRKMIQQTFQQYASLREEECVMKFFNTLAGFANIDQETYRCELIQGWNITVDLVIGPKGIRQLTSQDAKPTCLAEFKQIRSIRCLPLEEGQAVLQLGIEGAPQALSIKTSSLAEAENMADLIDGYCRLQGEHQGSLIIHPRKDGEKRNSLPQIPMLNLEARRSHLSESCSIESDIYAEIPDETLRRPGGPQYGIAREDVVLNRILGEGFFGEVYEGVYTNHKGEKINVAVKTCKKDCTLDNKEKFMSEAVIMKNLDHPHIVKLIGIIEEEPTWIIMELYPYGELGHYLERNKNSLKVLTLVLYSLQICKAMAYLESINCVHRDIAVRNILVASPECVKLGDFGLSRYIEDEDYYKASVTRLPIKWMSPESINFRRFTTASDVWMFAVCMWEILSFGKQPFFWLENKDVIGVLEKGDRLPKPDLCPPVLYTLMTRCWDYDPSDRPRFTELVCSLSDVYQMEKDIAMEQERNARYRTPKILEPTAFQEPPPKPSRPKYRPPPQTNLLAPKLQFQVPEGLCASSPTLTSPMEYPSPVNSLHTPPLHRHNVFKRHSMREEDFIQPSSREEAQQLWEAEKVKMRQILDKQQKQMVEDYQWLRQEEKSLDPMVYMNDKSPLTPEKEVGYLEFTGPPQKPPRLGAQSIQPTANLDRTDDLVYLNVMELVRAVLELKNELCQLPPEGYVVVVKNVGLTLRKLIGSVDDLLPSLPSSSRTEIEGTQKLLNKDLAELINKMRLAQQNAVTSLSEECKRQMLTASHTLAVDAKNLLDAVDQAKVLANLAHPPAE

[15] = NIH3T3 cell viability loss – ATP luminescence, mouse fibroblasts, counter-screen, dose response (AID 2010); type: functional, cell-based;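 further: cells exposed to compound for about 90 hours before reading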
[16] = Trypanosoma cruzi growth suppression in host cells – NIH3T3 host cells, beta-gal luminescence, confirmation (AID 2044); type: functional, cell-based;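 further: intracellular parasites grown in NIH/3T3 mouse fibroblasts as host cells; luminescent beta-galactosidase reporter signal from transgenic T. cruzi replicating inside host cells; inhibitors lower the luminescence signal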
[17] = target: Paired box protein Pax-8 (Homo sapiens, UniProt Q06710); test: PAX8 transcriptional activity inhibition in RMG-I – RMG-I cells, luciferase, cherry-pick, dose response (AID 687027); type: functional, cell-based;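 further: luciferase reporter driven by Pax8 target thyroperoxidase promoter measured by SteadyGlo luminescence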
Chain of Paired box protein Pax-8 (Q06710 whole entry): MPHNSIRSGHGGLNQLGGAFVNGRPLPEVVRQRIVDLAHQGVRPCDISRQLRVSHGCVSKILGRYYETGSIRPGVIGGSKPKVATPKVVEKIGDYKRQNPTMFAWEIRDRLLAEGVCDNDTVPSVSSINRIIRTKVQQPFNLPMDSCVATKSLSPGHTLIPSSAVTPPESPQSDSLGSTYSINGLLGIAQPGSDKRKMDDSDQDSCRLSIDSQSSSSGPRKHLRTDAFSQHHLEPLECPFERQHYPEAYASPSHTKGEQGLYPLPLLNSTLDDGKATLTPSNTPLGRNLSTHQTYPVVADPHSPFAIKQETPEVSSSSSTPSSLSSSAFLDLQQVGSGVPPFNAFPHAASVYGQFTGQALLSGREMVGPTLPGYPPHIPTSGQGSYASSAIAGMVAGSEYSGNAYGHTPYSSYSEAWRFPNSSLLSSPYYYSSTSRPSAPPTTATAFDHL

[18] = A2780 cell killing – plate reader, dry powder samples, cytotoxicity control, dose response (AID 743046); type: functional, cell-based
[19] = inhibitors of non-replicating M. tuberculosis, dose response, luciferase, dry powder (AID 651619); type: functional; conditions: Mycobacterium tuberculosis
[20] = inhibitors of non-replicating M. tuberculosis, dose response, luciferase, dry powder (AID 651620); type: functional; conditions: Mycobacterium tuberculosis
[21] = YAP1 overexpression rescue of CTGF inhibition – DLD1 cells, RT-qPCR, cherry-pick, mechanism study for YAP1 pathway inhibitor project, dose response (AID 1053127); type: functional, cell-based; conditions: DLD-1
[22] = cytotoxicity in MITF-independent A375 cells – cell-based, CellTiter-Glo luminescence, dry powder, set 4, counter-screen for MITF inhibitor project, dose response (AID 624364); type: functional; conditions: A-375;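 further: A375 melanoma cells are MITF independent so this is a counter screen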
[23] = viability loss in MITF-independent A375 cells – cell-based, CellTiter-Glo luminescence, dry powder, set 2, counter-screen for MITF inhibitor project, dose response (AID 624489); type: functional; conditions: A-375;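 further: actives are compounds lowering A375 viability meaning general cytotoxicity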
[24] = RKO cell viability reduction, dose response, CellTiter-Glo luminescence (AID 1117322); type: functional
[25] = CellTiter-Glo luminescence survival assay, SW480 colon tumor line, concentration-response curve, half-maximal inhibitory concentration (AID 1117338); type: functional
[26] = cytotoxicity toward Colo320 cells – cell-based, CellTiter-Glo luminescence, IC50, dose response (AID 1117334); type: functional; conditions: COLO 320
[27] = cytotoxicity toward HT-29 cells – cell-based, CellTiter-Glo luminescence, IC50, dose response (AID 1117330); type: functional
[28] = Reduced DLD-1 viability, concentration-response, CellTiter-Glo luminescence (AID 1117352); type: functional
[29] = cytotoxicity toward HCT116 cells – cell-based, CellTiter-Glo luminescence, IC50, dose response (AID 1117332); type: functional; conditions: HCT-116
[30] = SNU-C1 cell viability reduction, dose response, CellTiter-Glo luminescence (AID 1117323); type: functional, cell-based
[31] = system: INS1; test: INS-1E survival protection against cytokine death – cell-based, luminescence, retest, dose response (AID 449756); type: functional; conditions: Rattus norvegicus;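 further: cell death triggered by IL-1 beta plus TNF-alpha plus IFN-gamma mixture; protective hits raise ATP signal compared with cytokine alone wells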
[32] = system: BJ; test: BJ-TERT fibroblast viability loss – cell-based, RAS-independent, luminescence, dose response (AID 1933); type: functional; conditions: Homo sapiens
[33] = THP-1 cell cytotoxicity, dose response, cytotoxicity control for non-replicating M. tuberculosis project (AID 489025); type: functional
[34] = system: BJ; test: cells; type: functional, cell-based; conditions: Homo sapiens
[35] = system: BJ; test: BJ-TERT-LT-ST fibroblast viability loss – cell-based, RAS-independent, luminescence, dose response (AID 1935); type: functional; conditions: Homo sapiens;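 further: BJ fibroblasts immortalized with TERT plus LT and ST oncogenes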
[36] = microbe, parasite or virus in culture; type: functional; conditions: Mycobacterium tuberculosis
[37] = DRD fibroblast viability loss – cell-based, non-viral oncogenic, luminescence, dose response (AID 1934); type: functional; conditions: Homo sapiens
[38] = Vero E6 cell cytotoxicity, dose response, cytotoxicity control for non-replicating M. tuberculosis project, secondary assay (AID 492998); type: functional, VeroE6; conditions: Vero C1008
[39] = target: T1, Microphthalmia-associated transcription factor (Homo sapiens, UniProt O75030); test: reducers of TRPM1 reporter luminescence, concentration series – cell-based, SK-MEL-5, cherry-picked, set 3, MITF inhibitor project, dose response (AID 493073); type: functional;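 further: SK-MEL-5 melanoma cells with luciferase driven by the MITF target TRPM1 promoter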
T1 sequence (O75030 whole entry): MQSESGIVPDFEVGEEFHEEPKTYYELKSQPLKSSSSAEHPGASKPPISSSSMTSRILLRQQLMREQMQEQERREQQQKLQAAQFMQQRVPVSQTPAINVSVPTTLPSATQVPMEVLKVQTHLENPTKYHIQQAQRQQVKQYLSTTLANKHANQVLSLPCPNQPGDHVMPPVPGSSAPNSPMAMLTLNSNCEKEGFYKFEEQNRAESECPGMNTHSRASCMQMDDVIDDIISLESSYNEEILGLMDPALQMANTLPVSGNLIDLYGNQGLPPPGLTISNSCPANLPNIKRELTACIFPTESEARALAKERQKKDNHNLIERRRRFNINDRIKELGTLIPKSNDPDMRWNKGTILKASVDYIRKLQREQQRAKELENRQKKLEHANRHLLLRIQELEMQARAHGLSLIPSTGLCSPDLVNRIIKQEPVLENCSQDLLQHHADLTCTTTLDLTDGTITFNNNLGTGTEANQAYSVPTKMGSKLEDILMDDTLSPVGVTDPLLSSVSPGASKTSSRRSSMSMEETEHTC

[40] = HepG2 cell cytotoxicity, dose response, cytotoxicity control for non-replicating M. tuberculosis project (AID 489018); type: functional; conditions: Mycobacterium tuberculosis
[41] = rise of 2N DNA cells, HeLa – IC50, dose response (AID 1117349); type: functional, cell-based
[42] = HCT116 cell viability decrease, GSK3B pretreatment – CellTiter-Glo, IC50, dose response (AID 1117339); type: functional; conditions: HCT-116
[43] = rise of 4N DNA cells, HeLa – IC50, dose response (AID 1117351); type: functional, cell-based

Chain of Caspase-6 (P55212 24-179 limits assumed): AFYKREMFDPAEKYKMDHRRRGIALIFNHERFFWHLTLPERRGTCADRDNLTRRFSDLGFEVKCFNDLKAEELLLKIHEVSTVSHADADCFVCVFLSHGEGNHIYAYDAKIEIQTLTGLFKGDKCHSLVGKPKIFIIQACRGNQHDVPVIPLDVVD
Chain of Caspase-6 (P55212 194-293 limits assumed): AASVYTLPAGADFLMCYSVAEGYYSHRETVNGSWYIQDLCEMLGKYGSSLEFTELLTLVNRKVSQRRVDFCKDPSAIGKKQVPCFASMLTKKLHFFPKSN

## CCCCC(NC(=O)Cc1c(C)c2cc3c(-c4ccccc4)coc3c(C)c2oc1=O)C(=O)O (configuration not stated)
[1]
  AC50: 22 µM (active)
[2]
  IC50: 45.9 µM (active)
[3]
  IC50: 51 µM (active)
[4]
  CC50: > 50 µM (active)

## COc1cc2c(cc1OC)CN(C(=O)c1ccco1)CC2
[5]
  EC50: 11.1 µM (not active)

## O=C(c1cc2ccccc2oc1=O)N1CCN(c2ccc(N3CCOCC3)nn2)CC1
[6]
  IC50: > 100 µM (active)

## CCOC(=O)/C(=C\c1ccccc1)NC(=O)c1ccccc1
[6]
  IC50: > 100 µM (active)

## Cc1nc2ccc(NC(=O)c3ccc(Cl)s3)cc2s1
[7]
  EC50: 12.5 µM (active)
[8]
  EC50: < 0.1 µM (active)
[9]
  EC50: 0.491 µM (active)
[10]
  EC50: 0.443 µM (active)
[11]
  EC50: 0.363 µM (active)
[12]
  EC50: < 0.1 µM (active)

## CC(=O)c1c(C)[nH]c(C(=O)OCn2nnc3ccccc3c2=O)c1C
[13]
  IC50: 34.2 µM (not active)

## COc1cc(C2Nc3ccc4ncccc4c3C3=C2C(=O)CCC3)cc(OC)c1O (configuration not stated)
[14]
  IC50: 12.7 µM (not active)

## O=C(Nc1nccs1)c1ccc(Br)o1
[13]
  IC50: > 31 µM (not active)

## O=C(N/N=C/c1ccc([N+](=O)[O-])o1)C1CC1
[1]
  AC50: 10 µM (active)
[15]
  EC50: > 60 µM (not active)
[16]
  EC50: 0.36 µM (active)

## CC(C)CC#Cc1ccc([C@@H]2[C@@H](CO)N3CCCCN(S(=O)(=O)c4ccc(F)cc4)C[C@H]23)cc1
[17]
  AC50: 12.4 µM (active)
[18]
  AC50: 52.3 µM (active)

## Brc1cccc(-c2nnc(SCc3ccccn3)o2)c1
[19]
  IC90: 4 µM (active)
[20]
  IC90: 4 µM (active)

## O=C(Cc1ccncc1)N1CCCCN2[C@H](CO)[C@@H](c3ccc(C#Cc4ccccc4F)cc3)[C@H]2C1
[21]
  AC50: 15.1 µM (active)

## CC(C)(C)[S@@+]([O-])N1Cc2cc(C(=O)NCC(F)(F)F)nc(-c3cccc(-c4cccc(F)c4)c3)c2[C@H]1CCO
[21]
  AC50: > 26 µM (inactive)

## COc1ccc(C2=C(N)C(=O)c3ccccc3C2=O)cc1
[22]
  AC50: > 70 µM (inactive)
[23]
  AC50: > 70 µM (inactive)

## O=c1sc2ccccc2c(O)c1C1CC(c2ccc(-c3ccc(Br)cc3)cc2)Cc2ccccc21 (configuration not stated)
[24]
  IC50: 0.538 µM (active)
[25]
  IC50: 0.187 µM (active)
[26]
  IC50: 0.735 µM (active)
[27]
  IC50: 0.436 µM (active)
[28]
  IC50: 0.239 µM (active)
[29]
  IC50: 0.485 µM (active)
[30]
  IC50: 0.252 µM (active)

## CCOc1ccc(OCc2ccc(C(=O)N/N=C(\C)c3ccccn3)cc2)cc1
[31]
  AC50: 0.712 µM (active)
[32]
  EC50: 0.75 µM (active)
[33]
  CC50: 1.37 µM (active)
[34]
  EC50: 1.25 µM (active)
[35]
  EC50: 3.92 µM (inconclusive)
[36]
  CC50: 4.15 µM (active)
[37]
  EC50: 25.4 µM (inconclusive)
[38]
  CC50: 3.37 µM (active)
[39]
  AC50: 3.64 µM (active)
[40]
  CC50: 5.83 µM (active)

## COc1ccc(C2C(=O)c3ccccc3C2=O)c(OC)c1
[8]
  EC50: < 0.1 µM (inconclusive)
[9]
  EC50: > 12 µM (not active)
[10]
  EC50: > 12 µM (not active)
[11]
  EC50: 0.104 µM (inconclusive)

## COc1ccc(C2=C(NC(C)=O)C(=O)c3ccccc3C2=O)cc1
[22]
  AC50: 13.4 µM (active)
[23]
  AC50: 8.33 µM (active)

## COc1cc(NC(C)CCCN)c2ncccc2c1 (configuration not stated) [PRIMAQUINE]
[24]
  IC50: > 20 µM (inactive)
[25]
  IC50: > 20 µM (inactive)
[41]
  IC50: > 10 µM (inactive)
[26]
  IC50: > 20 µM (inactive)
[42]
  IC50: > 20 µM (inactive)
[28]
  IC50: > 20 µM (inactive)
[43]
  IC50: > 10 µM (inactive)
[29]
  IC50: 1.88 µM (active)
[30]
  IC50: > 20 µM (inactive)

## O=C(CCCN1CCC(O)(c2cccc(C(F)(F)F)c2)CC1)c1ccc(F)cc1 [TRIFLUPERIDOL HYDROCHLORIDE]
[24]
  IC50: > 20 µM (inactive)
[25]
  IC50: > 20 µM (inactive)
[26]
  IC50: > 20 µM (inactive)
[27]
  IC50: > 20 µM (inactive)
[42]
  IC50: > 20 µM (inactive)
[28]
  IC50: > 20 µM (inactive)
[29]
  IC50: > 20 µM (inactive)
[30]
  IC50: > 20 µM (inactive)
